Test results taken from patent US20160090578A1, “ENZYMES […] GLYCOSYLATION OF POLYPHENOLS” (priority 2013, published 2016).

What was measured:
[1] = test system: MgtB; test: Biocatalytic reactions with purified recombinant His-tagged MgtB and UDP-glucose, quantified by TLC; format: biochemical, Bacillus sp. HH1500; conditions: for Acceptor substrate modification by His10-MgtB (in words): 500 μM UDP-α-D-glucose as donor, 100 μM acceptor substrate; for Conversion (%): 1 mL, 37° C., 2 hours, triplicate, 500 μM UDP-glucose, 100 μM flavonoid, 5 μg/mL purified recombinant MgtB
Procedure: (§1) The supernatant transferred into HPLC flat bottom vials was used for TLC analysis. Samples of 20 μL were applied on 20×10 cm^2 (HP)TLC silica 60 F254 plates (Merck KGaA, Darmstadt, Germany) versus 200 pmol of reference flavonoids. To avoid carryover of substances, i.e. prevent false positives, samples were spotted with double syringe rinsing in between by the ATS 4. The sampled TLC plates were developed in ethyl acetate/acetic acid/formic acid/water 100:11:11:27 (‘Universal Pflanzenlaufmittel’) (41). After separation the TLC plates were dried in an oven at 80° C. for five minutes. The absorbance of the separated bands was determined densitometrically depending on the absorbance maximum of the applied educt substances at 285 to 370 nm using the deuterium lamp in a TLC Scanner 3 (CAMAG, Muttenz, Switzerland). Subsequently, the substances on developed TLC plates were derivatized by dipping the plates in a methanolic solution of 1% (w/v) diphenyl boric acid β-aminoethyl ester (DPBA) (42) for one second using a Chromatogram Immersion Device (CAMAG, Muttenz, Switzerland) followed by drying the TLC plates in hot air with a fan. After two minutes the bands were visualized at 365 nm with a UV hand lamp and photographed. Alternatively, fluorescence of the bands was determined densitometrically by the TLC Scanner 3 depending on the absorbance maximum of the applied substances at 320 to 370 nm.
(§2) Samples of 20 μL were sprayed by an ATS 4 (CAMAG, Muttenz, Switzerland) on HPTLC silica 60 F254 plates (Merck KGaA, Darmstadt, Germany) versus different amounts of respective standard educt and product substances. TLC plates were developed, dried, derivatized and analyzed as stated above. Regression curves were calculated from the peak area of the applied reference substances to determine the amount of produced and residual flavonoids.

[2] = test system: MgtC; format: cell-based, Bacillus sp. BCG+1; conditions: E. coli DH5α pDrive::mgtC, whole cell catalysis
[3] = test system: GtfC; test: Biotransformation assays with E. coli expressing recombinant GtfC, quantified by TLC; format: cell-based, Elbe river sediment metagenome; conditions: for Conversion (%): whole-cell biotransformation, 50 mL, 50 mM sodium phosphate buffer pH 7.0, 1% (w/v) glucose, 200 μM flavonoid, 30° C., triplicate; for Conversion in GtfC biotransformation (in words): whole-cell biotransformation with E. coli expressing GtfC
Procedure: The supernatant was applied in TLC analysis.
as §1, §2

[4] = test system: MgtT; conditions: E. coli DH5α pDrive::mgtT, whole cell catalysis
Procedure: (§3) For the detection of flavonoid modifications in bacteria a biotransformation approach was used. Cultures were grown in LB medium with appropriate antibiotic overnight. Expression cultures were prepared as stated above for overproduction of enzymes. The cells were sedimented by centrifugation at 4,500 g and resuspended in 50 mM sodium phosphate buffer pH 7 supplemented with 1% (w/v) α-D-glucose. Biotransformations with a final concentration of 100 μM flavonoid inoculated from stock solutions of 100 mM in DMSO, i.e. 0.1%, were incubated in Erlenmeyer flasks at 30° C. and 175 rpm up to 24 hours. Samples of 4 mL were withdrawn and acidified with 100 μL H3PO4 aq for extraction in 2 mL ethyl acetate. They were shaken for 1 minute and phase separated by centrifugation at 2,000 g and 4° C. The supernatant was applied in TLC analysis. For quantification, samples of 100 μL were taken and dissolved 1/10 in ethyl acetate/acetic acid 3:1. These acidified ethyl acetate samples were centrifuged at 10,000 g. The supernatant was used for quantitative TLC analysis as stated below.

[5] = test system: MgtW; conditions: E. coli DH5α pDrive::mgtW, whole cell catalysis
Procedure: as §3

Compound | Acceptor substrate modification by His10-MgtB (in words) [1] | Conversion (%) [1] [%] | Reaction in biotransformation with MgtC [2] | Conversion (%) [3] [%] | other results
O=c1cc(-c2ccc(O)c(O)c2)oc2cc(O)cc(O)c12 [Luteolin] | modified with high yields | 82 | shown | 86 | 
O=C(CCc1ccc(O)cc1)c1c(O)cc(O)cc1O [phloretin] |  |  | shown |  | Reaction in biotransformation with MgtT [4]: shown; Reaction in biotransformation with MgtW [5]: shown
COc1cc(O)c(CC=C(C)C)c(O)c1C(=O)/C=C/c1ccc(O)cc1 [Xanthohumol] |  |  |  | 52 | 
O=c1cc(-c2ccc(O)cc2)oc2cc(O)cc(O)c12 [apigenin] |  |  | shown |  | 
COc1ccc(-c2cc(=O)c3ccc(O)cc3o2)cc1 [Pratol] |  |  |  |  | Conversion in GtfC biotransformation (in words) [3]: converted weakly
Oc1ccc(/C=C/c2cc(O)cc(O)c2)cc1 [t-Resveratrol] |  |  |  | 96 | 
O=c1c(O)c(-c2ccc(O)cc2)oc2cc(O)cc(O)c12 [Kaempferol] | modified with high yields | ~100 |  | ~100 | Conversion (%) ([1]; listed as kaempferol): approximately 100%
O=c1c(-c2ccc(O)cc2)coc2cc(O)cc(O)c12 [Genistein] | modified with high yields | 72 |  | 68 | 
Cc1cc(=O)oc2cc(O)ccc12 [4-Methylumbelliferone, 7-Hydroxy-4-methylcoumarin] |  |  |  |  | Reaction in biotransformation with MgtT [4]: shown
COc1cc([C@@H]2CC(=O)c3c(O)cc(O)cc3O2)ccc1O [homoeriodytiol] |  |  | shown |  | Reaction in biotransformation with MgtT [4]: shown; Reaction in biotransformation with MgtW [5]: shown
O=c1c(O)c(-c2ccc(O)c(O)c2)oc2cc(O)cc(O)c12 [Quercetin] | modified with high yields | ~100 | shown | ~100 | Conversion (%) ([1]; listed as quercetin): approximately 100%; Reaction in biotransformation with MgtW [5]: shown; Conversion in GtfC biotransformation (in words) [3]: transformed almost completely
Cc1cc(=O)c2c(O)cc(O)cc2o1 [noreugenin] |  |  | shown |  | 
O=C(/C=C/c1ccc(O)cc1)OC[C@H]1O[C@@H](Oc2c(-c3ccc(O)cc3)oc3cc(O)cc(O)c3c2=O)[C@H](O)[C@@H](O)[C@@H]1O [Tiliroside, kaempferol-3-O-6″-coumaroyl-glucoside] | modified with high yields | 83 |  |  | 
